Key:
Test in all cases: LanthaScreen Binding - Eu-anti-GST
Settings in all cases: read-out: Percentage of inhibition
MYO3A (MYO3 alpha) = biological target: T1, MYO3A (MYO3 alpha) (Homo sapiens, UniProt Q8NEV4)
T1 construct: purchased Life Technologies
Method: (§1) We further evaluated the selectivity profile of compound 55 on a larger panel of kinases (SelectScreen Whole Panel, Life Technologies). The inhibition profile of 55, evaluated at 1 μM, is depicted on a dendrogram on Figure 3 where kinases inhibited by a minimum of 80% are shown. A full list of the kinases tested is shown on Table S1 in supplementary information.

KIT D816V = biological target: T2, KIT D816V (Homo sapiens, UniProt P10721, D816V)
T2 construct: purchased Life Technologies (SelectScreen service)
Method: as §1

TEK (TIE2) Y1108F = TEK (TIE2) Y1108F (Homo sapiens, UniProt Q02763, Y1108F)
Method: as §1

EPHA7 = biological target: T3, EPHA7 (Homo sapiens, UniProt Q15375)
T3 construct: purchased Life Technologies (SelectScreen service)
Method: as §1

TLK2 = biological target: T4, TLK2 (Homo sapiens, UniProt Q86UE8)
T4 construct: purchased Life Technologies (SelectScreen service)
Method: as §1

TNIK = TNIK (Homo sapiens, UniProt Q9UKE5)
Method: as §1

STK32B (YANK2) = STK32B (YANK2) (Homo sapiens, UniProt Q9NY57)
STK32B (YANK2), sequence (Q9NY57 whole entry): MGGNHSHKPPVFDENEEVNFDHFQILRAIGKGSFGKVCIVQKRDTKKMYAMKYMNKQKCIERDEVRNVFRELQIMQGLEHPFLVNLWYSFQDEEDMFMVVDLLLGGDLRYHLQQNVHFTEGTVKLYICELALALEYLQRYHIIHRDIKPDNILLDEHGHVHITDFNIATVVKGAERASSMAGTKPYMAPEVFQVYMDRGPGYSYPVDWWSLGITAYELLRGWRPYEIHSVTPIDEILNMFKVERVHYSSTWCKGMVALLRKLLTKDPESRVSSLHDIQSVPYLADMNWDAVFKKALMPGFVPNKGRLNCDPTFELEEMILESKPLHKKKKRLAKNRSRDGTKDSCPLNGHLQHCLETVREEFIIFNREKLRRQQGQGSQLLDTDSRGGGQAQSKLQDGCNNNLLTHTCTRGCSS
Method: as §1

ACVR1 (ALK2) = biological target: T5, ACVR1 (ALK2) (Homo sapiens, UniProt Q04771)
T5 construct: purchased Life Technologies (SelectScreen Whole Panel service)
Method: as §1

MAP3K3 (MEKK3) = biological target: T6, MAP3K3 (MEKK3) (Homo sapiens, UniProt Q99759)
T6 construct: purchased Life Technologies (SelectScreen service)
T6 sequence (Q99759 whole entry): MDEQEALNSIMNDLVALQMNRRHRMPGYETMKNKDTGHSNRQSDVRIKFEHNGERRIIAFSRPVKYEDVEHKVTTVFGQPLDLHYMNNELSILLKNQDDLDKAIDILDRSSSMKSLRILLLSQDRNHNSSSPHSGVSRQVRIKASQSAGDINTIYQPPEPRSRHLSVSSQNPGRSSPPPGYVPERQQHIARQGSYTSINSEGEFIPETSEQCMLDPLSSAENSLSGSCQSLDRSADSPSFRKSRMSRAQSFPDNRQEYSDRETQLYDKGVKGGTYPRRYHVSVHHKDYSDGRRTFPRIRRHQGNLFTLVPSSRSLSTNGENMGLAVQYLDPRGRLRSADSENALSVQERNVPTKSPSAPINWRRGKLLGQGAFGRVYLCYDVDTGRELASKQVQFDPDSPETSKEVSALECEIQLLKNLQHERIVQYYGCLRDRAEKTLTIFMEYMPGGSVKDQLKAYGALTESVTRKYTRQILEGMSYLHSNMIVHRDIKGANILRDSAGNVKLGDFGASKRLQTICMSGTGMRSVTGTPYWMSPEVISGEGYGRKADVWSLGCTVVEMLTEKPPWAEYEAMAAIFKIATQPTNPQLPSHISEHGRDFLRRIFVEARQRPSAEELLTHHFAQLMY
Method: as §1

FGFR3 G697C = biological target: T7, FGFR3 G697C (Homo sapiens, UniProt P22607, G697C)
T7 construct: purchased Life Technologies
Method: as §1

TGFBR1 (ALK5) = biological target: T8, TGFBR1 (ALK5) (Homo sapiens, UniProt P36897)
T8 construct: purchased Life Technologies (SelectScreen Whole Panel service)
Method: as §1

DYRK2 = biological target: T9, DYRK2 (Homo sapiens, UniProt Q92630)
T9 construct: purchased Life Technologies
Method: as §1

KIT D816H = biological target: T10, KIT D816H (Homo sapiens, UniProt P10721, D816H)
T10 construct: purchased Life Technologies (SelectScreen service)
Method: as §1

STK38L (NDR2) = biological target: T11, STK38L (NDR2) (Homo sapiens, UniProt Q9Y2H1)
T11 construct: purchased Life Technologies (SelectScreen)
T11 sequence (Q9Y2H1 whole entry): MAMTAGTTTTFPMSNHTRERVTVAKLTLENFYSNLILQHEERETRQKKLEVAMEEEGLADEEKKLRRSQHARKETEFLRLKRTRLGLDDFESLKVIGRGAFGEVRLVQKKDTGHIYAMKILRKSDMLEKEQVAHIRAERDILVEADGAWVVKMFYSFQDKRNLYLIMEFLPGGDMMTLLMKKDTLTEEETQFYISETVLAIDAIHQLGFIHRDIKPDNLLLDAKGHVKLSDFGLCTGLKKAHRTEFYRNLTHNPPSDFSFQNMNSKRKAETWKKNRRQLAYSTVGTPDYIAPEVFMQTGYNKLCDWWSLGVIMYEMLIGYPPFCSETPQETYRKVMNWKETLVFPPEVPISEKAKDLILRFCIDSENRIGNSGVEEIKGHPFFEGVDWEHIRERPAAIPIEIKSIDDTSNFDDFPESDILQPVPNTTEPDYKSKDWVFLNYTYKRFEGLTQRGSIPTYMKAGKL
Method: as §1

BMPR1A (ALK3) = BMPR1A (ALK3) (Homo sapiens, UniProt P36894)
BMPR1A (ALK3), sequence (P36894 24-532): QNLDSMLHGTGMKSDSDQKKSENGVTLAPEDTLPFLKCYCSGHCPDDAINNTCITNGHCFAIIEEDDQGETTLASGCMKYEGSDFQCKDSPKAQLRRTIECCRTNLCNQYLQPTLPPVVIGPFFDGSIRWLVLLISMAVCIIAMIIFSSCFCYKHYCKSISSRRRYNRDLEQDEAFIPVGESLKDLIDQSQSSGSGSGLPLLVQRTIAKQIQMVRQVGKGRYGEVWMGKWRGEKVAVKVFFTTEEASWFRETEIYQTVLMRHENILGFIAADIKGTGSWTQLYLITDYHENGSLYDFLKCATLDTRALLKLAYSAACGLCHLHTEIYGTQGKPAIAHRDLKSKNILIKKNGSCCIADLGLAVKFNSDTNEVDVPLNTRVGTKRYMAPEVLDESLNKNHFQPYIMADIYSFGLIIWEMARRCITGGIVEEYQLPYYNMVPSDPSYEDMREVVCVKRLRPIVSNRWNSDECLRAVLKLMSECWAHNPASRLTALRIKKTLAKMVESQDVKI
Method: as §1

ULK1 = biological target: T12, ULK1 (Homo sapiens, UniProt O75385)
T12 construct: purchased Life Technologies
Method: as §1

AXL R499C = biological target: T13, AXL R499C (Homo sapiens, UniProt P30530, R499C)
T13 construct: purchased Life Technologies
T13 sequence (P30530 26-894 R499C): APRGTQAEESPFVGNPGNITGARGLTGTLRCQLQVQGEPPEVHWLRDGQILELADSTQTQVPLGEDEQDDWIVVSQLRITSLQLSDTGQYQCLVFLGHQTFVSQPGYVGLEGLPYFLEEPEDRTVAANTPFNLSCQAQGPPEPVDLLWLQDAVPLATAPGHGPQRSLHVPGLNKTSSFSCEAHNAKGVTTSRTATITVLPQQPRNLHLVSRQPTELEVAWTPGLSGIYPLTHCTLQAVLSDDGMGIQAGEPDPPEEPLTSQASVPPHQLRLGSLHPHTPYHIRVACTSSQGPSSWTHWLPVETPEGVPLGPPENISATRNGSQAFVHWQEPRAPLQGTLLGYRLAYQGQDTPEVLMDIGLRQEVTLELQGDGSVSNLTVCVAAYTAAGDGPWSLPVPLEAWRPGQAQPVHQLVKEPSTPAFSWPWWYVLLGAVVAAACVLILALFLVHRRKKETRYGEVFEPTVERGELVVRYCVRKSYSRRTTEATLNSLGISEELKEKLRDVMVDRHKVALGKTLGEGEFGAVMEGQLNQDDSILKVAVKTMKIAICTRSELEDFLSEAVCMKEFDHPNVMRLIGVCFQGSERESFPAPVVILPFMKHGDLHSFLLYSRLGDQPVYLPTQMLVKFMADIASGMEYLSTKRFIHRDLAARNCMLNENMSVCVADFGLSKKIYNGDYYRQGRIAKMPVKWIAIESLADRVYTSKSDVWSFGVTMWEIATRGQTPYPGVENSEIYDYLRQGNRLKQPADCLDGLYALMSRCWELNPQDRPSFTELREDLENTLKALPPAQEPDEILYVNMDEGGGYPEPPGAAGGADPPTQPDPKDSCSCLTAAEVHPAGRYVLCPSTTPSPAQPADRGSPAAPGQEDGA
Method: as §1

STK38 (NDR) = biological target: T14, STK38 (NDR) (Homo sapiens, UniProt Q15208)
T14 construct: purchased Life Technologies (SelectScreen Whole Panel service)
T14 sequence (Q15208 whole entry): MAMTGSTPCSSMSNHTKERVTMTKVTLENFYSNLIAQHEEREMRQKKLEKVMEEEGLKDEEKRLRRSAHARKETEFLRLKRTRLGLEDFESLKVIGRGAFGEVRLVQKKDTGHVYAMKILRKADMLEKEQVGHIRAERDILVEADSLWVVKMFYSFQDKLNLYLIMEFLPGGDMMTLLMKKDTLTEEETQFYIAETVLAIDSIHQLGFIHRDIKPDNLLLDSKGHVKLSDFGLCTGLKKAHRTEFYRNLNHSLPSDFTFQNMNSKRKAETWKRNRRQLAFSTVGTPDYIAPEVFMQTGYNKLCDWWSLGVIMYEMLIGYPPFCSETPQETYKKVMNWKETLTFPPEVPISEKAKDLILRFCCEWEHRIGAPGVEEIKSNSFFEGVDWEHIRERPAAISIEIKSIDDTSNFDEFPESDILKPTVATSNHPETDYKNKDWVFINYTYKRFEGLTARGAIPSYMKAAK
Method: as §1

MLCK (MLCK2) = MLCK (MLCK2) (Homo sapiens, UniProt Q32MK0)
Method: as §1

TTK = biological target: T15, TTK (Homo sapiens, UniProt P33981)
T15 construct: purchased Life Technologies
Method: as §1

FGFR3 K650M = FGFR3 K650M (Homo sapiens, UniProt P22607, K650M)
Method: as §1

MYO3B (MYO3 beta) = biological target: T16, MYO3B (MYO3 beta) (Homo sapiens, UniProt Q8WXR4)
T16 construct: purchased Life Technologies (SelectScreen Whole Panel)
Method: as §1

BMPR1B (ALK6) = biological target: T17, BMPR1B (ALK6) (Homo sapiens, UniProt O00238)
T17 construct: purchased Life Technologies (SelectScreen)
Method: as §1

CDK9 (Inactive) = CDK9 (Inactive) (Homo sapiens, UniProt P50750)
Method: as §1

RAF1 (cRAF) Y340D Y341D = biological target: T18, RAF1 (cRAF) Y340D Y341D (Homo sapiens, UniProt P04049, Y340D/Y341D)
T18 construct: purchased Life Technologies
Method: as §1

EIF2AK2 (PKR) = biological target: T19, EIF2AK2 (PKR) (Homo sapiens, UniProt P19525)
T19 construct: purchased Life Technologies (SelectScreen service)
T19 sequence (P19525 whole entry): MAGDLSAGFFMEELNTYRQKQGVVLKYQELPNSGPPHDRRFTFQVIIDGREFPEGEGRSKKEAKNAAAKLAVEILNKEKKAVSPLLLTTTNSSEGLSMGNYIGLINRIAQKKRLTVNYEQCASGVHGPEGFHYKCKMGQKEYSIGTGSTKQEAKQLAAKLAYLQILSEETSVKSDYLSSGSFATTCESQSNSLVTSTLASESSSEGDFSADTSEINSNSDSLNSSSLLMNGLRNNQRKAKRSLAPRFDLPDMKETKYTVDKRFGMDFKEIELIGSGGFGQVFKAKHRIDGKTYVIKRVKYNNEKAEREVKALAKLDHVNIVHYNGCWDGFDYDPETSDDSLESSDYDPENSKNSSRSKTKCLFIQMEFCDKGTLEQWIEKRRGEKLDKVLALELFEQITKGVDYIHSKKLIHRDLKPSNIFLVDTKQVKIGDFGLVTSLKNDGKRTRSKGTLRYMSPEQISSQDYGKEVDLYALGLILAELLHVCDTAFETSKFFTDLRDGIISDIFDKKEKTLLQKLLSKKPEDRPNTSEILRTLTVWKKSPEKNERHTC
Method: as §1

SLK = biological target: T20, SLK (Homo sapiens, UniProt Q9H2G2)
T20 construct: purchased Life Technologies
Method: as §1

TEK (TIE2) R849W = biological target: T21, TEK (TIE2) R849W (Homo sapiens, UniProt Q02763, R849W)
T21 construct: purchased Life Technologies (SelectScreen Whole Panel service)
Method: as §1

MYLK (MLCK) = MYLK (MLCK) (Homo sapiens, UniProt Q15746)
Method: as §1

CDK2/cyclin E1 = CDK2/cyclin E1 (Homo sapiens, UniProt P24941)
Method: as §1

BRSK2 = biological target: T22, BRSK2 (Homo sapiens, UniProt Q8IWQ3)
T22 construct: purchased Life Technologies (SelectScreen Whole Panel service)
Method: as §1

WNK2 = WNK2 (Homo sapiens, UniProt Q9Y3S1)
Method: as §1

WEE1 = biological target: T23, WEE1 (Homo sapiens, UniProt P30291)
T23 construct: purchased Life Technologies (SelectScreen Whole Panel service)
Method: as §1

MAP4K1 (HPK1) = biological target: T24, MAP4K1 (HPK1) (Homo sapiens, UniProt Q92918)
T24 construct: purchased Life Technologies (SelectScreen service)
Method: as §1

CDK11/cyclin C = biological target: T25, CDK11/cyclin C (Homo sapiens, UniProt Q9BWU1)
T25 construct: purchased Life Technologies
Method: as §1

ACVRL1 (ALK1) = biological target: T26, ACVRL1 (ALK1) (Homo sapiens, UniProt P37023)
T26 construct: purchased Life Technologies (SelectScreen service)
Method: as §1

TLK1 = TLK1 (Homo sapiens, UniProt Q9UKI8)
Method: as §1

NUAK2 = biological target: T27, NUAK2 (Homo sapiens, UniProt Q9H093)
T27 construct: purchased Life Technologies (SelectScreen Whole Panel)
Method: as §1

PLK4 = biological target: T28, PLK4 (Homo sapiens, UniProt O00444)
T28 construct: purchased Life Technologies (SelectScreen Whole Panel)
T28 sequence (O00444 whole entry): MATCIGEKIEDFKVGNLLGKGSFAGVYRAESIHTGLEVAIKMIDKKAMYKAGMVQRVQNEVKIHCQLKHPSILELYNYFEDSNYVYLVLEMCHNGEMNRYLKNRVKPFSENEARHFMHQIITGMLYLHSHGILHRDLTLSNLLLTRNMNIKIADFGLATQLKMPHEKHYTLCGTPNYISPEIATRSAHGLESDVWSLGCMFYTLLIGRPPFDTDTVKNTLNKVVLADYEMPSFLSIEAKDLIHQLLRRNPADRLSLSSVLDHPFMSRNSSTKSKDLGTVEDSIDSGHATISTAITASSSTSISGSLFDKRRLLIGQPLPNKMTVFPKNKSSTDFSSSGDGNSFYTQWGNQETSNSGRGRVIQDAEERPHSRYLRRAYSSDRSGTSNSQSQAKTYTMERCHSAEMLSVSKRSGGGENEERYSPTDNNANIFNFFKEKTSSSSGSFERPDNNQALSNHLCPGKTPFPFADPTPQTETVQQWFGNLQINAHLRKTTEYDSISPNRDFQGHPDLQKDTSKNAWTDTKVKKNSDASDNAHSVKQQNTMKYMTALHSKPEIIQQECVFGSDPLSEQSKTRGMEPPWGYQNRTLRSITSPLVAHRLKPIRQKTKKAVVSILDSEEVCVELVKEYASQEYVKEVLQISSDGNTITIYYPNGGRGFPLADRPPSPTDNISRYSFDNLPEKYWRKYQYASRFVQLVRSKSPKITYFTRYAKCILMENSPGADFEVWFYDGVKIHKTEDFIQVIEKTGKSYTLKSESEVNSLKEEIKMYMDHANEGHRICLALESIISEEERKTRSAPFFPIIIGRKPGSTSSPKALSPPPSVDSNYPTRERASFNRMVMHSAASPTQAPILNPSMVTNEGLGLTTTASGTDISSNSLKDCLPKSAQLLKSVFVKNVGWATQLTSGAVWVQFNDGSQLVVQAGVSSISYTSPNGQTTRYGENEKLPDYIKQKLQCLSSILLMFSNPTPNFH
Method: as §1

Work on `COc1ccc2[nH]c3c(=O)[nH]c4ccc(O)cc4c3c2c1` [Compound 55, 2-Hydroxy-10-methoxy-5,7-dihydro-6H-indolo[2,3-c]quinolin-6-one] yielded an inhibition at 1 µM (MYO3A (MYO3 alpha)) of 33%, an inhibition at 1 µM (KIT D816V) of 77% and an inhibition at 1 µM (TEK (TIE2) Y1108F) of 6%. The inhibition at 1 µM (EPHA7) was 23%, the inhibition at 1 µM (TLK2) was 88% and the inhibition at 1 µM (TNIK) was 61%. For the same compound, the inhibition at 1 µM (STK32B (YANK2)) was 7%, the inhibition at 1 µM (ACVR1 (ALK2)) was 15% and the inhibition at 1 µM (MAP3K3 (MEKK3)) was 71%. For the same compound, the inhibition at 1 µM (FGFR3 G697C) was 35%, the inhibition at 1 µM (TGFBR1 (ALK5)) was 10% and the inhibition at 1 µM (DYRK2) was 97%. It also gave an inhibition at 1 µM (KIT D816H) of 80%, an inhibition at 1 µM (STK38L (NDR2)) of 8% and an inhibition at 1 µM (BMPR1A (ALK3)) of 6%. It also gave an inhibition at 1 µM (ULK1) of 31%, an inhibition at 1 µM (AXL R499C) of 35% and an inhibition at 1 µM (STK38 (NDR)) of 12%. The inhibition at 1 µM (MLCK (MLCK2)) was 62%, the inhibition at 1 µM (TTK) was 42% and the inhibition at 1 µM (FGFR3 K650M) was 67%. For the same compound, the inhibition at 1 µM (MYO3B (MYO3 beta)) was 53%, the inhibition at 1 µM (BMPR1B (ALK6)) was 8% and the inhibition at 1 µM (CDK9 (Inactive)) was 59%. It also gave an inhibition at 1 µM (RAF1 (cRAF) Y340D Y341D) of 4%, an inhibition at 1 µM (EIF2AK2 (PKR)) of 74% and an inhibition at 1 µM (SLK) of 40%. For the same compound, the inhibition at 1 µM (TEK (TIE2) R849W) was 11%, the inhibition at 1 µM (MYLK (MLCK)) was 60% and the inhibition at 1 µM (CDK2/cyclin E1) was 64%. For the same compound, the inhibition at 1 µM (BRSK2) was 15%, the inhibition at 1 µM (WNK2) was 14% and the inhibition at 1 µM (WEE1) was 18%. It also gave an inhibition at 1 µM (MAP4K1 (HPK1)) of 81%, an inhibition at 1 µM (CDK11/cyclin C) of 37% and an inhibition at 1 µM (ACVRL1 (ALK1)) of 25%. It also gave an inhibition at 1 µM (TLK1) of 68%, an inhibition at 1 µM (NUAK2) of 53% and an inhibition at 1 µM (PLK4) of 50%.

— article PMC9186362, “Design and biological evaluation of substituted 5,7-dihydro-6H-indolo[2,3-c]quinolin-6-one as novel selective Haspin inhibitors” (Journal of Enzyme Inhibition and Medicinal Chemistry, 2022)
